The record followed here is patent publication US12516022B2, “Derivatives of aryl hydrocarbon receptor agonists” (AZORA THERAPEUTICS, INC., priority 2021, dated 2026).

The series can be described thus: Time course of conversion to indirubin in FaSSGF at 37° C.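 On all read-outs here: compound incubated in fasted state simulated gastric fluid, species in samples quantified by UPLC-MS with UV (210–400 nm) and ELS detection.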 The format is physicochemical. Particulars: FaSSGF (Example 4; table title prints FaSSIF) 37° C.; for Conversion to indirubin: over a 24 hour period.

Regarding `O=C1/C(=C2/C(=O)N(CN3CCC(F)(F)CC3)c3ccccc32)Nc2ccccc21` [drawing 280], the Conversion to indirubin is on record as 0-20%.
Regarding `CNCCNC(=O)N1C(=O)/C(=C2\Nc3ccccc3C2=O)c2ccccc21.Cl` [drawing 279], the Conversion to indirubin was 0-20%. Under “15 min”, the indirubin was 0%, the indirubin methylene alcohol is listed as 0% and the “starting material (prodrug compound)” value worked out at 100%. For the same molecule, under “30 min”, the indirubin turned out to be 0%, the indirubin methylene alcohol was 0% and the “starting material (prodrug compound)” value was found to be 100%. In addition, where the note is “1 h”, the indirubin is 0%, the indirubin methylene alcohol is on record as 0% and the “starting material (prodrug compound)” value was 100%. Further, under “2 h”, the indirubin was determined as 0%, the indirubin methylene alcohol was 0% and the “starting material (prodrug compound)” value amounted to 100%. Moreover, where the note is “24 h”, the indirubin came out at 0%, the indirubin methylene alcohol was found to be 0% and the “starting material (prodrug compound)” value is given as 100%.
For the molecule `O=C1/C(=C2/C(=O)N(CN3CCCC3)c3ccccc32)Nc2ccccc21` [drawing 270], the Conversion to indirubin was 80-100%. Also, for the setting “15 min”, the indirubin is reported as 100%, the indirubin methylene alcohol turned out to be 0% and the “starting material (prodrug compound)” value was 0%. Further, under “30 min”, the indirubin came to 100%, the indirubin methylene alcohol worked out at 0% and the “starting material (prodrug compound)” value is listed as 0%. For the setting “1 h”, the indirubin is reported as 100%, the indirubin methylene alcohol is on record as 0% and the “starting material (prodrug compound)” value amounted to 0%. For the setting “2 h”, the indirubin was found to be 100%, the indirubin methylene alcohol amounted to 0% and the “starting material (prodrug compound)” value is 0%. Besides, under “24 h”, the indirubin was 99%, the indirubin methylene alcohol came to 1% and the “starting material (prodrug compound)” value is recorded as 0%.
Regarding `O=C1/C(=C2/C(=O)N(CN3CCC3)c3ccccc32)Nc2ccccc21` [drawing 275], the Conversion to indirubin is 20-40%. Further, where the note is “15 min”, the indirubin came out at 25%, the indirubin methylene alcohol is 2% and the “starting material (prodrug compound)” value is on record as 71%. Moreover, for the setting “30 min”, the indirubin is 26%, the indirubin methylene alcohol is on record as 4% and the “starting material (prodrug compound)” value is listed as 70%. Further, where the note is “1 h”, the indirubin is 25%, the indirubin methylene alcohol came out at 2% and the “starting material (prodrug compound)” value came to 71%. Further, under “2 h”, the indirubin is reported as 24%, the indirubin methylene alcohol was determined as 2% and the “starting material (prodrug compound)” value was determined as 71%. For the same molecule, for the setting “24 h”, the indirubin is 23%, the indirubin methylene alcohol is 3% and the “starting material (prodrug compound)” value was 74%.
As to `O=C1/C(=C2/C(=O)N(C(=O)NC3CCOCC3)c3ccccc32)Nc2ccccc21` [drawing 278], the Conversion to indirubin is on record as 0-20%. Moreover, for the setting “15 min”, the indirubin is recorded as 7%, the indirubin methylene alcohol was determined as 0% and the “starting material (prodrug compound)” value is 69%. Also, under “30 min”, the indirubin is reported as 12%, the indirubin methylene alcohol turned out to be 0% and the “starting material (prodrug compound)” value worked out at 61%. For the same molecule, where the note is “1 h”, the indirubin is reported as 11%, the indirubin methylene alcohol was determined as 0% and the “starting material (prodrug compound)” value came to 82%. For the setting “2 h”, the indirubin stood at 9%, the indirubin methylene alcohol came to 0% and the “starting material (prodrug compound)” value is given as 58%. For the same molecule, where the note is “24 h”, the indirubin is given as 10%, the indirubin methylene alcohol amounted to 0% and the “starting material (prodrug compound)” value came out at 86%.
On to `O=C1/C(=C2/C(=O)N(COS(=O)(=O)O)c3ccccc32)Nc2ccccc21` [drawing 277], for which the Conversion to indirubin is recorded as 0-20%. For the same molecule, under “15 min”, the indirubin was found to be 0%, the indirubin methylene alcohol came out at 15% and the “starting material (prodrug compound)” value was determined as 83%. In addition, where the note is “30 min”, the indirubin worked out at 0%, the indirubin methylene alcohol is 23% and the “starting material (prodrug compound)” value is 67%. Moreover, for the setting “2 h”, the indirubin turned out to be 0%, the indirubin methylene alcohol is listed as 22% and the “starting material (prodrug compound)” value stood at 72%. Where the note is “24 h”, the indirubin is given as 0%, the indirubin methylene alcohol is listed as 8% and the “starting material (prodrug compound)” value came to 26%.
Consider `CN(C)CCN(C)CN1C(=O)/C(=C2\Nc3ccccc3C2=O)c2ccccc21` [drawing 268], for which the Conversion to indirubin was 80-100%. Also, where the note is “15 min”, the indirubin was 93%, the indirubin methylene alcohol turned out to be 6% and the “starting material (prodrug compound)” value stood at 0%. Where the note is “30 min”, the indirubin was 93%, the indirubin methylene alcohol amounted to 6% and the “starting material (prodrug compound)” value is 0%. Under “1 h”, the indirubin amounted to 92%, the indirubin methylene alcohol was 7% and the “starting material (prodrug compound)” value came to 0%. Further, where the note is “2 h”, the indirubin is recorded as 95%, the indirubin methylene alcohol turned out to be 1% and the “starting material (prodrug compound)” value amounted to 0%. Besides, under “24 h”, the indirubin turned out to be 95%, the indirubin methylene alcohol is recorded as 5% and the “starting material (prodrug compound)” value is reported as 0%.
Consider `CCN(CC)CN1C(=O)/C(=C2\Nc3ccccc3C2=O)c2ccccc21` [drawing 267], for which the Conversion to indirubin is on record as 80-100%. In addition, for the setting “15 min”, the indirubin is given as 100%, the indirubin methylene alcohol was determined as 0% and the “starting material (prodrug compound)” value stood at 0%. For the same molecule, for the setting “30 min”, the indirubin is 100%, the indirubin methylene alcohol is 0% and the “starting material (prodrug compound)” value was 0%. Also, under “1 h”, the indirubin was 100%, the indirubin methylene alcohol was 0% and the “starting material (prodrug compound)” value worked out at 0%. Besides, for the setting “2 h”, the indirubin was determined as 100%, the indirubin methylene alcohol is listed as 0% and the “starting material (prodrug compound)” value is 0%. Where the note is “24 h”, the indirubin was determined as 100%, the indirubin methylene alcohol turned out to be 0% and the “starting material (prodrug compound)” value was determined as 0%.
In the case of `CN(C)C1CCN(CN2C(=O)/C(=C3\Nc4ccccc4C3=O)c3ccccc32)CC1` [drawing 272], the Conversion to indirubin is on record as 60-80%. Besides, under “15 min”, the indirubin amounted to 51%, the indirubin methylene alcohol is 5% and the “starting material (prodrug compound)” value is 41%. In addition, for the setting “30 min”, the indirubin was 55%, the indirubin methylene alcohol is listed as 5% and the “starting material (prodrug compound)” value came to 36%. Under “1 h”, the indirubin is recorded as 44%, the indirubin methylene alcohol worked out at 10% and the “starting material (prodrug compound)” value came out at 46%. Also, for the setting “2 h”, the indirubin is reported as 44%, the indirubin methylene alcohol stood at 10% and the “starting material (prodrug compound)” value is listed as 46%. For the same molecule, under “24 h”, the indirubin is reported as 61%, the indirubin methylene alcohol amounted to 1% and the “starting material (prodrug compound)” value was found to be 31%.
As to `CN1CCN(CN2C(=O)/C(=C3\Nc4ccccc4C3=O)c3ccccc32)CC1` [drawing 273], the Conversion to indirubin is listed as 40-60%. In addition, where the note is “15 min”, the indirubin is on record as 23%, the indirubin methylene alcohol is listed as 0% and the “starting material (prodrug compound)” value is 75%. Besides, where the note is “30 min”, the indirubin is 18%, the indirubin methylene alcohol was found to be 0% and the “starting material (prodrug compound)” value turned out to be 76%. Besides, where the note is “1 h”, the indirubin stood at 24%, the indirubin methylene alcohol was found to be 0% and the “starting material (prodrug compound)” value came to 74%. For the same molecule, for the setting “2 h”, the indirubin was determined as 24%, the indirubin methylene alcohol was 0% and the “starting material (prodrug compound)” value came out at 76%. In addition, for the setting “24 h”, the indirubin turned out to be 41%, the indirubin methylene alcohol is reported as 0% and the “starting material (prodrug compound)” value was determined as 58%.
As to `O=C1/C(=C2/C(=O)N(CN3CCCCC3)c3ccccc32)Nc2ccccc21` [drawing 269], the Conversion to indirubin is listed as 80-100%. Besides, under “15 min”, the indirubin worked out at 99%, the indirubin methylene alcohol was determined as 0% and the “starting material (prodrug compound)” value was 1%. Where the note is “30 min”, the indirubin was found to be 99%, the indirubin methylene alcohol came out at 0% and the “starting material (prodrug compound)” value is 1%. Moreover, under “1 h”, the indirubin was determined as 99%, the indirubin methylene alcohol is reported as 0% and the “starting material (prodrug compound)” value was 1%. For the same molecule, where the note is “2 h”, the indirubin is given as 99%, the indirubin methylene alcohol came to 0% and the “starting material (prodrug compound)” value was found to be 1%. Also, where the note is “24 h”, the indirubin was found to be 99%, the indirubin methylene alcohol was 0% and the “starting material (prodrug compound)” value worked out at 1%.
In the case of `O=C1/C(=C2/C(=O)N(CN3CCOCC3)c3ccccc32)Nc2ccccc21` [drawing 276], the Conversion to indirubin is on record as 20-40%. Where the note is “15 min”, the indirubin turned out to be 7%, the indirubin methylene alcohol came to 0% and the “starting material (prodrug compound)” value came out at 89%. Also, under “30 min”, the indirubin is reported as 8%, the indirubin methylene alcohol amounted to 0% and the “starting material (prodrug compound)” value is listed as 85%. For the same molecule, where the note is “1 h”, the indirubin is on record as 10%, the indirubin methylene alcohol was 5% and the “starting material (prodrug compound)” value is on record as 85%. For the same molecule, under “2 h”, the indirubin is recorded as 11%, the indirubin methylene alcohol is 3% and the “starting material (prodrug compound)” value was determined as 80%. For the setting “24 h”, the indirubin is listed as 29%, the indirubin methylene alcohol worked out at 3% and the “starting material (prodrug compound)” value is 68%.
